In ChEMBL document CHEMBL1201862, “PubChem BioAssay data set” (2004):
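Grown in 96-well plates, cells were treated for 48 hours with each compound at five concentrations. Insufficient inhibition: endpoint recorded as highest concentration tested. GI50: concentration for 50% inhibition of growth.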 Active and inactive are the calls of the source. Rule as the data show it: active = GI50 up to about 1.1 µM and inactive = higher.

Experiments:
Assay in all cases: NCI tumour cell line growth inhibition, 48 h
OVCAR-8 = tested on: OVCAR-8
K562 = tested on: K562
SF-268 = tested on: SF-268
KM12 = tested on: KM12
OVCAR-4 = tested on: OVCAR-4
CCRF-CEM = tested on: CCRF-CEM
M14 = tested on: M14
NCI-H23 = tested on: NCI-H23
NCI-H460 = tested on: NCI-H460
NCI-H226 = tested on: NCI-H226
Malme-3M = tested on: Malme-3M
DU-145 = tested on: DU-145
HOP-92 = tested on: HOP-92
NCI-H522 = tested on: NCI-H522
MOLT-4 = tested on: MOLT-4
HCT-116 = tested on: HCT-116
SK-MEL-5 = tested on: SK-MEL-5
A498 = tested on: A498
CAKI-1 = tested on: CAKI-1
HCT-15 = tested on: HCT-15

SMILES | GI50 (OVCAR-8) | GI50 (K562) | GI50 (SF-268) | GI50 (KM12) | GI50 (OVCAR-4) | GI50 (CCRF-CEM) | GI50 (M14) | GI50 (NCI-H23) | GI50 (NCI-H460) | GI50 (NCI-H226) | GI50 (Malme-3M) | GI50 (DU-145) | GI50 (HOP-92) | GI50 (NCI-H522) | GI50 (MOLT-4) | GI50 (HCT-116) | GI50 (SK-MEL-5) | GI50 (A498) | GI50 (CAKI-1) | GI50 (HCT-15)
CC1(C)OC[C@@H](C[C@H](O)COCc2ccccc2)O1 | > 100 µM (inactive) | > 100 µM (inactive) | > 100 µM (inactive) | > 100 µM (inactive) | > 100 µM (inactive) | > 100 µM (inactive) | > 100 µM (inactive) | > 100 µM (inactive) | > 100 µM (inactive) | > 100 µM (inactive) | > 100 µM (inactive) | > 100 µM (inactive) | > 100 µM (inactive) | > 100 µM (inactive) | > 100 µM (inactive) | > 100 µM (inactive) | > 100 µM (inactive) | > 100 µM (inactive) | > 100 µM (inactive) | > 100 µM
COc1cc(Cc2cnc(N)nc2N)cc(OC)c1OCCCNc1ccc([N+](=O)[O-])cc1 | 14.3 µM (inactive) | 8.69 µM (inactive) | 22.9 µM (inactive) | 14.4 µM (inactive) | 15.8 µM (inactive) | 9.35 µM (inactive) | 6.35 µM (inactive) | 16 µM (inactive) | 7.48 µM (inactive) | 13.4 µM (inactive) | 12.7 µM (inactive) | 15.8 µM (inactive) | 14.3 µM (inactive) | 13 µM (inactive) | 2.72 µM (inactive) | 12.6 µM (inactive) | 5.79 µM (inactive) | 14.9 µM (inactive) | 33.2 µM (inactive) | 14.6 µM
OC(C/C(=N\N=C(/CC(O)(C(F)(F)F)C(F)(F)F)c1ccccc1)c1ccccc1)(C(F)(F)F)C(F)(F)F | > 10 µM (inactive) | > 10 µM (inactive) | > 10 µM (inactive) | > 10 µM (inactive) | > 10 µM (inactive) | > 10 µM (inactive) | > 10 µM (inactive) | > 10 µM (inactive) | > 10 µM (inactive) | > 10 µM (inactive) | > 10 µM (inactive) | > 10 µM (inactive) | > 10 µM (inactive) | > 10 µM (inactive) | > 10 µM (inactive) | > 10 µM (inactive) | > 10 µM (inactive) | > 10 µM (inactive) | > 10 µM (inactive) | > 10 µM
O=C1C=C(Nc2ccc(Br)cc2)c2ccccc2/C1=N/O | 12.1 µM (inactive) | 8.71 µM (inactive) | 5.6 µM (inactive) | 2.5 µM (inactive) | 6.84 µM (inactive) | 23.6 µM (inactive) | 1.63 µM (inactive) | 1.28 µM (inactive) | 2.3 µM (inactive) | 2.32 µM (inactive) | 10.2 µM (inactive) | 1.77 µM (inactive) | 17.6 µM (inactive) | 28.1 µM (inactive) | 11.7 µM (inactive) | 11.4 µM (inactive) | 0.989 µM (active) | 5.81 µM (inactive) | 6.52 µM (inactive) | 3.14 µM
COC(=O)C[C@@H]1C(C)(C)[C@@H]2O[C@@]34C[C@@H]2C(=O)[C@]1(C)[C@H]3CC[C@@]1(C)[C@H](c2ccoc2)OC(=O)C[C@]14O | > 100 µM (inactive) | > 100 µM (inactive) | > 100 µM (inactive) | > 100 µM (inactive) | > 100 µM (inactive) | > 100 µM (inactive) | > 100 µM (inactive) | > 100 µM (inactive) | > 100 µM (inactive) | > 100 µM (inactive) | > 100 µM (inactive) | > 100 µM (inactive) | > 100 µM (inactive) | > 100 µM (inactive) | > 100 µM (inactive) | > 100 µM (inactive) | > 100 µM (inactive) | > 100 µM (inactive) | > 100 µM (inactive) | > 100 µM
O=C1CSC2(CC(/C=C/c3ccccc3[N+](=O)[O-])=NN2c2cccc(S(=O)(=O)O)c2)N1c1nc2ccccc2s1 (stereo not given) | 15.3 µM (inactive) | 19.5 µM (inactive) | 16.8 µM (inactive) | 15.5 µM (inactive) | 15.3 µM (inactive) | 17.9 µM (inactive) | 20.7 µM (inactive) | 16.9 µM (inactive) | 17 µM (inactive) | 16.8 µM (inactive) | 24.4 µM (inactive) | 12.5 µM (inactive) | 25.5 µM (inactive) | 11.6 µM (inactive) | 15.7 µM (inactive) | 21.3 µM (inactive) | 25.4 µM (inactive) | 18.2 µM (inactive) | 32.7 µM (inactive) | 17 µM
C[N+](CCCl)(CCCl)Cc1cccc2cccc([N+](=O)[O-])c12 | 43.5 µM (inactive) | > 100 µM (inactive) | > 100 µM (inactive) | > 100 µM (inactive) | 57.7 µM (inactive) | 73.6 µM (inactive) | > 100 µM (inactive) | 30 µM (inactive) | 53.8 µM (inactive) | > 100 µM (inactive) | 81.1 µM (inactive) | > 100 µM (inactive) | > 100 µM (inactive) | 73.1 µM (inactive) | 60.5 µM (inactive) | > 100 µM (inactive) | 53.3 µM (inactive) | > 100 µM (inactive) | 31 µM (inactive) | > 100 µM
COC(=O)C1C(=O)C(C(=O)OC)C2CCC1N2C (stereo not given) | 27.9 µM (inactive) | 31.8 µM (inactive) | 96.6 µM (inactive) | > 100 µM (inactive) | 39.8 µM (inactive) | 15.8 µM (inactive) | 29.8 µM (inactive) | 0.571 µM (active) | 48.3 µM (inactive) | 36.2 µM (inactive) | 20.2 µM (inactive) | 28.8 µM (inactive) | 16 µM (inactive) | > 100 µM (inactive) | 9.08 µM (inactive) | 21.5 µM (inactive) | > 100 µM (inactive) | 76.9 µM (inactive) | 92.5 µM (inactive) | 1.84 µM
Cc1cc(O)c2c(c1)CC(O)C1=C2C(=O)c2c(O)ccc(OC3CC(O)C(OC4CC(OC5CCC(O)C(C)O5)C(O)C(C)O4)C(C)O3)c2C1=O (stereo not given) | 1.65 µM (inactive) | 1.63 µM (inactive) | 1.74 µM (inactive) | 1.74 µM (inactive) | 1.79 µM (inactive) | 0.203 µM (active) | 1.5 µM (inactive) | 1.83 µM (inactive) | 2.16 µM (inactive) | 1.5 µM (inactive) | 0.789 µM (active) | 1.72 µM (inactive) | 1.86 µM (inactive) | 0.964 µM (active) | 0.305 µM (active) | 1.75 µM (inactive) | 1.43 µM (inactive) | 2.33 µM (inactive) | 1.71 µM (inactive) | 1.96 µM
O=C(OCCNC(=O)N1CC1)OCCNC(=O)N1CC1 | > 10 µM (inactive) | > 10 µM (inactive) | > 10 µM (inactive) | > 10 µM (inactive) | > 10 µM (inactive) | > 10 µM (inactive) | > 10 µM (inactive) | > 10 µM (inactive) | > 10 µM (inactive) | > 10 µM (inactive) | > 10 µM (inactive) | > 10 µM (inactive) | > 10 µM (inactive) | > 10 µM (inactive) | > 10 µM (inactive) | > 10 µM (inactive) | > 10 µM (inactive) | > 10 µM (inactive) | > 10 µM (inactive) | > 10 µM
